Experimental data published in a melting point compilation (Tetko et al.).

melting point	SMILES
190 to 191 °C	NNc1ncnc2c1cnn2-c1ccccc1
113 °C	CC1CC(OC(=O)C(O)c2ccccc2)CC(C)(C)N1C (stereo unspecified)
98 to 99 °C	COc1ccccc1-c1ccc(C=CC(=O)c2ccccc2)o1
134 °C	CC(C)(C)NC(=O)c1ccccc1
256 °C	CC(=O)OCC(=O)C12N=C(C)OC1CC1C3CCC4=CC(=O)C=CC4(C)C3C(O)CC12C (stereo unspecified)
156 °C	Nc1ccc(CN2CCS(=O)(=O)CC2)cc1
164 to 168 °C	O=C1Nc2ccccc2CCC1Br (stereo unspecified)
97 °C	COc1ccc(C=CC(=O)c2ccc(OC)cc2OC)cc1
165 °C	NS(=O)(=O)c1ccc(S(=O)(=O)CCO)c(F)c1
130 °C	CC(CCCO)C1CCC2C3CCC4CCCCC4(C)C3CCC12C (stereo unspecified)
115 to 117 °C	CCOC(=O)c1cnc2c(c(C)nn2C)c1Oc1cc(Cl)cc(Cl)c1
50 to 53 °C	CCCCCCCCC(=O)Oc1ccc(/N=N/c2ccc(CCCC)cc2)cc1
150 to 152 °C	Cc1onc(-c2c(Cl)cccc2Cl)c1C(=O)NN
-24.8 °C	FC(F)(F)c1nc(C(F)(F)F)nc(C(F)(F)F)n1
144 °C	COc1ccc(C2(C)CCc3oc4ccc(Cl)cc4c3-c3oc(C)cc32)cc1 (stereo unspecified)
40.6 °C	FC(F)(Cl)C(Cl)(Cl)Cl
135 to 136 °C	Cc1oc(-c2ccccc2)nc1C(=O)Cl
31 °C	COc1ccc(Br)c([N+](=O)[O-])c1
77 °C	COC(=O)c1ccc2ccccc2c1
164 °C	O=C(CCC1=NC=NC1)NCCc1c[nH]cn1
90 to 96 °C	CCOC(=O)c1cc2cccc([N+](=O)[O-])c2[nH]1
32 °C	N#Cc1ncc(F)cc1F

melting point	SMILES
200 to 201 °C	CC1(c2ccccc2)CC(C(=NO)c2cc3ccccc3o2)C1 (stereo unspecified)
155 to 156 °C	O=C(O)C=Cc1ccsc1
156 °C	COc1ccccc1N1CCN(CCCNc2cc(=O)n(C)c(=O)n2C)CC1
3.5 °C	COc1ccc(CCCCO)cc1
229 °C	O=C(O)C1c2ccccc2-c2ccccc21
153 °C	COc1cc(C[N+](=O)[O-])ccc1OCc1ccccc1
62.5 °C	COC1=C(OC)C(=O)C(C)=C(C)C1=O
146 °C	CCN(CC)CCNC(=O)c1cc(Cl)c(N)cc1OC
64 °C	COC(=O)c1ccc(Br)o1
206 to 207 °C	O=C(O)c1csc(-c2cccc(Cl)c2)n1
163 to 164 °C	CC(C)(C)OC(=O)N1CCC(C(N)=O)CC1
42 to 45 °C	C[Si](C)(C)C#Cc1ccccn1
114 to 116 °C	O=S(=O)(Cl)c1ccc(Oc2ccccc2)nc1
130 to 131 °C	Nc1ccc2c(c1)CCCC2=O
144 °C	Cc1cc(C2CCCCC2)n(O)c(=O)c1
53 to 59 °C	COC(=O)c1ccc(C(=O)Cl)cc1
166 to 168 °C	Cc1cc2nnc(C(=O)O)c(C)n2n1
235 °C	CC(=O)c1cc(C(C)=O)c(N)cc1N
165 °C	Nc1cc(N)c(C(=O)CI)cc1C(=O)CI
127 to 132 °C	COc1ccc(C2(C(=O)O)CC2)cc1
214 to 218 °C	Nc1ncc([N+](=O)[O-])cc1Br
73 °C	O=Cc1ccccc1Sc1ccc(Cl)cc1

SMILES	melting point
CC12CCC3C(CCC4=CC(=O)C=CC43O)C1CCC2=O (stereo unspecified)	219 to 221 °C
CC(=O)C1CCC2C3CCC4CC(N)CCC4(C)C3CCC12C (stereo unspecified)	126 °C
O=P(OC(Cl)CCCl)(OC(Cl)CCCl)OC(Cl)CCCl (stereo unspecified)	26.7 °C
CC12CCC(O)CC1CCC1C2CCC2(C)C(C3=CC(=O)OC3)CCC12O (stereo unspecified)	253 °C
CN(C)NC(=O)CCC(=O)O	158 to 162 °C
CNC(=O)ON=C(C)C(C)S(C)(=O)=O (stereo unspecified)	87 °C
CCC(=O)c1ccc(N)cc1	140 °C
